Broadly, the melting point is the temperature of the solid-liquid transition.

Where a name gives a salt, the structure may show the parent alone.

The values below come from patent publication US20080280890A1, “HYDROXYLAMINE COMPOUNDS AND METHODS OF THEIR USE” (priority 2007, published 2008).

For data set [1], the system named is Angiogenesis in CAM model. In words: Neovascularization on the CAM (chick chorioallantoic membrane model of angiogenesis). The class given is in vivo, chicken. As to conditions: 30 ug; unit assumed. The procedure:
In vivo neovascularization was examined by the method previously described by Auerbach et al. (J. Dev. Biol. 41:391-394 (1974)). Ten-day old chicken embryos were purchased from Spafas, Inc. (Preston, Conn.) and were incubated at 37° C. with 55% relative humidity. In the dark, with the aid of a candling lamp, a small hole was punctured in the shell concealing the air sac with a hypodermic needle. A second hole was punctured in the shell on the broadside of the egg directly over an […] portion of the embryonic membrane, as observed during candling. An artificial air sac was created beneath the second hole by applying gentle vacuum to the first hole using a small rubber squeeze bulb. The vacuum caused the chorioallantoic membrane (CAM) to separate from the shell.
A window, approximately 1.0 cm^2, was cut in the shell over the dropped CAM with the use of a small crafts grinding wheel (Dremel, Division of Emerson Electric Company Racine, Wis.). The window allowed direct access to the underlying CAM.
A pro-angiogenic agent was added to induce new blood vessel branches on the CAM of 10-day old embryos. Filter disks of #1 filter paper (Whatman International, United Kingdom) were punched using a small puncher and were soaked in 3 mg/mL cortisone acetate (Sigma, St. Louis, Mo.) in a solution (95% ethanol and water). The disks were subsequently air dried under sterile conditions. The disks were then suspended in PBS (Phosphate Buffered Saline) and placed on growing CAMs. Filters treated with TP-H (TEMPOL-H) or TEMPOL and/or H2O2 or TP-H and/or bFGF or VEGF were placed on the first day of the 3-day incubation.
For inducing angiogenesis, sterile filter disks were saturated with bFGF (1 μg/ml) (Life Technologies, Gaithersburg, Md.) or other pro-angiogenesis factors and control disks were saturated with PBS without Calcium and Magnesium. […]
Using sterile forceps one filter/CAM was placed from the window. The window was sealed with Highland brand transparent tape.
After 24-48 hr, 10-25 ul of test agent was injected intravenously or added topically into the CAM membrane. Eight-Ten eggs/treatment group were used.
CAM tissue directly beneath filter disk was harvested from embryos treated 48 hours prior with compound or control. Tissues were washed three times with PBS. Sections were placed in a 35-mm petri dish (Nalge Nunc, Rochester, N.Y.) and examined under a SV6 stereomicroscope (Karl Zeiss, Thornwood, N.Y.) at 50× magnification.
CAM sections from Petri dish were examined using SV6 stereomicroscope (Karl Zeiss) at 50× magnification. Digital images of CAM sections from Petri dish were collected using a 3-CCD color video camera system (Toshiba America, New York, N.Y.). These images were analyzed using Image-Pro Plus software (Media Cybernetics, Silver Spring, Md.).
The number of branch points in blood vessels within the circular region superimposed to the area of a filter disk was counted for each section. After incubation at 37° C. with 55% relative humidity for 3 days, the CAM tissue directly beneath each filter disk was resected from control and treated CAM samples. Tissues were washed three times with PBS. Sections were placed in a 35-mm Petri dish (Nalge Nunc; Rochester, N.Y.) and were examined under a SV6 stereomicroscope (Karl Zeiss; Thornwood, N.Y.) at 50× magnification. Digital images of CAM sections adjacent to filters were collected using a 3-CCD color video camera system (Toshiba America; New York, N.Y.) and analyzed with the Image-Pro Plus software (Media Cybernetics; Silver Spring, Md.).
The number of vessel branch points contained in a circular region equal to the area of a filter disk was counted for each section. Percent inhibition data are expressed as the quotient of the experimental value minus the negative control value divided by the difference between the positive control value and the negative control value. […]

Data set [2] has as its system Human neuroblastoma SKN-SH cells, resistant to doxorubicin. In words: Chemoresistance: cancer cell viability (MTT) in presence or absence of doxorubicin. The class given is cell-based. To be noted: compound 50 ug/mL, MTT. From the text:
A method for evaluating a compound's propensity to overcome cancer cell chemoresistance is described in “Caspase Inhibition Switches Doxorubicin-Induced Apoptosis To Senescence”, Abdelhadi Rebbaa, Xin Zheng, Pauline M Chou and Bernard L Mirkin, Oncogene (2003) 22, 2805-2811. Resistant human cancer cells to doxorubicin were selected by stepwise exposure to drug concentrations ranging from 10^−9 M-10^−6 M over 3 months. They were then subjected to treatment with the doxorubicin alone or in combination with hydroxylamine compounds 1-12, 16, 20, and 21 (Table 4). The cells were incubated with the drugs for 72 hours, and cell viability was measured by the MTT assay. Additionally, molecular pathways that might be associated with increased chemo-responsiveness with these compounds were investigated. p Cancer Cell Viability Data for certain hydroxylamines in the presence or absence of Doxorubicin is listed in Table 4.
A method for evaluating a compound's propensity to overcome cancer cell chemoresistance is described in “Caspase Inhibition Switches Doxorubicin-Induced Apoptosis To Senescence”, Abdelhadi Rebbaa, Xin Zheng, Pauline M Chou and Bernard L Mirkin, Oncogene (2003) 22, 2805-2811. Human neuroblastoma SKN-SH cells (ATCC Cat. No. HTB-11) were cultured in Dulbecco's Modified Eagles Medium (DMEM; Gibco, Grand Island, N.Y.) supplemented with 10% fetal bovine serum (FBS; Sigma-Aldrich, St. Louis, Mo.) at 37° C. in a 95% Air/5% CO2 atmosphere. Resistant human cancer cells to doxorubicin were selected by stepwise exposure to drug concentrations ranging from 10^−9M-10^−6M over 3 months. They were then subjected to treatment with the doxorubicin alone or in combination with hydroxylamine compounds. The cells were incubated with the drugs for 72 hours, and cell viability was measured by the MTT assay. This consists of adding 10 μl/well of MTT (5 mg/ml solution) and incubation for 4 h at 37° C. The precipitate formed is then solubilized by addition of 100 μl of HCL 0.5 N/Isopropanol and incubation for 15 hours at 37° C. The optical density is measured at 570 nm and cell survival is estimated by comparison to untreated cells. Each point represents 4 wells data represent average ± SE. Additionally, molecular pathways that might be associated with increased chemo-responsiveness with these compounds were investigated.
Cytotoxic activity of doxorubicin and hydroxylamine analogs were quantitatively determined by a colorimetric assay utilizing 3-(4,5-dimethyl-2-thiazolyl) 2,5-diphenyl tetrazolium bromide (MTT; Sigma-Aldrich, St. Louis, Mo.). Briefly, cells were seeded at 10^4 cells/well in 96-well plates and maintained in culture for 24 hours at 37° C. in DMEM supplemented with 10% FBS. Drugs were added to designated wells and cells were incubated for […], following which MTT (10 μL of 5 mg/ml solution) was added to each 100 μl well and incubated for 4 hours at 37° C. The cells were solubilized by incubation with 100 μl of HCl 0.5N in isopropanol for 15 hours at 37° C. The optical density of this solution was measured at 570 nm and the percentage of viable cells estimated by comparison with untreated control cells.

As to `CC1(C)CC(Oc2nsnc2C(=O)O)CC(C)(C)N1O.Cl`, the melting point is 209.1 °C (dec.).
On the same count and under the same terms, for `CC1(C)CC(Oc2nsnc2N2CCN(C(=O)c3ccco3)CC2)CC(C)(C)N1O.Cl` the value was 198.1 °C (dec.); for `CC1(C)CC(Oc2nc3ccccc3s2)CC(C)(C)N1O.Cl`, 160 °C (dec.).
Consider `CC1(C)CC(Oc2nc3ccc(F)cc3s2)CC(C)(C)N1O.Cl`, for which the melting point was 178 °C (dec.).
Regarding `CC1(C)C=C(COc2ccccc2N2CCOCC2)C(C)(C)N1O.Cl`, the melting point was 155.7 °C (dec.).
On the same count and under the same terms, next, `Cc1c(C)c2c(c(C)c1O)CCC(C)(C(=O)NC1CC(C)(C)N(O)C(C)(C)C1)O2.Cl` (centres unmarked): 174.9 °C (dec.); `COc1cc2c(cc1OC)CN(c1nsnc1OC1CC(C)(C)N(O)C(C)(C)C1)CC2.Cl`: 166.9 °C (dec.).
For the compound `CC1(C)CC(Nc2nc3ccccc3s2)CC(C)(C)N1O.Cl`, the melting point is 183 °C (dec.).
The same measure, in the same setting: next, `COc1ccc2nc(NC3CC(C)(C)N(O)C(C)(C)C3)sc2c1.Cl`: 220 °C (dec.); `CC1(C)c2ccc(Br)cc2C(C)(C)N1O.Cl`: 214.1 °C; `CC(C)(C)OC(=O)c1nsnc1OC1CC(C)(C)N(O)C(C)(C)C1.Cl`: 197 °C (dec.).
On the same count and under the same terms, for `CC1(C)C=C(CO)C(C)(C)N1O` (as salt: chloride) [Compound 8] the value was 141.9 °C (dec.); for `CC1(C)CC(Oc2nsnc2C#N)CC(C)(C)N1O` (as salt: hydrochloride) [Compound 45], 179.2 °C (dec.); for `Cc1nsnc1OCC1=CC(C)(C)N(O)C1(C)C` (as salt: hydrochloride) [Compound 47, 3-((1-hydroxy-2,5-dihydro-2,2,5,5-tetramethyl-1H-pyrrol-3-yl)methoxy)-4-methyl-1,2,5-thiadiazole], 173.2 °C.
Still for that read-out and setting: for `CC1(C)CC(NC(=O)CCCCC2CCSS2)CC(C)(C)N1O` (centres unmarked) (as salt: hydrochloride) [Compound 49, 5-(1,2-dithialan-3-yl)-N-(1-hydroxy-2,2,6,6-tetramethylpiperidin-4-yl)pentanamide] the value was 164.7 °C (dec.); for `CC(C)c1nsnc1OCC1=CC(C)(C)N(O)C1(C)C` (as salt: hydrochloride) [Compound 51], 155.7 °C; for `CC1(C)CC(O)C(C)(C)N1O` (centres unmarked) (as salt: salt) [Compound 7, 2,2,5,5-Tetramethyl-Pyrrolidine-1,3-diol], 155.5 °C (dec.).
Take `CC1(C)CC(NS(C)(=O)=O)CC(C)(C)N1O` (as salt: salt) [Compound 10, 1-hydroxy-4-methanesulfonamido-2,2,6,6-tetramethylpiperidine]: the melting point is 178.3 °C (dec.).
Take `CC1(C)CC(O)C(Br)C(C)(C)N1O` (centres unmarked) [Compound 9, 3-Bromo-2,2,6,6-tetramethyl-piperidine-1,4-diol]: the melting point is 138.5 °C (dec.). The compound further registered a Percent inhibition of angiogenesis in CAM model at 30 ug in data set [1] of 82.2%. Further, in data set [2] (Dox. 10^−6 M present (+)), the “Mean OD (×10^−3), cancer cell viability” value is on record as 234.75 ×10^−3. Moreover, in data set [2] (Dox. absent (−)), the “Mean OD (×10^−3), cancer cell viability” value was 509.00 ×10^−3.
Regarding `CC1(C)CC(C#N)CC(C)(C)N1O.Cl` [Compound 12, 4-cyano-1-hydroxyl-2,2,6,6-tetramethylpiperidine], the melting point was 186 °C (dec.). In data set [2] (Dox. 10^−6 M present (+)), the “Mean OD (×10^−3), cancer cell viability” value is listed as 287.25 ×10^−3. In addition, the “Mean OD (×10^−3), cancer cell viability” value in data set [2] (Dox. absent (−)) was 539.25 ×10^−3.
With `CC1(C)CC(Cl)CC(C)(C)N1O.Cl` [Compound 21, 4-chloro-1-hydroxy-2,2,6,6-tetramethylpiperidine], the melting point was 201.8 °C (dec.). Moreover, in data set [1], the Percent inhibition of angiogenesis in CAM model at 30 ug worked out at 60.9%. Further, in data set [2] (Dox. 10^−6 M present (+)), the “Mean OD (×10^−3), cancer cell viability” value is recorded as 99.25 ×10^−3. Further, the “Mean OD (×10^−3), cancer cell viability” value in data set [2] (Dox. absent (−)) is 492.75 ×10^−3.
Regarding `CC(C)c1nsnc1OCC1=CC(C)(C)N(O)C1(C)C` [Compound 51], the Percent inhibition of angiogenesis in CAM model at 30 ug in data set [1] worked out at 43%. The “Mean OD (×10^−3), cancer cell viability” value in data set [2] (Dox. 10^−6 M present (+)) is 71.00 ×10^−3; in data set [2] (Dox. absent (−)), 1208.25 ×10^−3.
On the same counts, the results for `CN1CCN(c2nsnc2OC2CC(C)(C)N(O)C(C)(C)C2)CC1` [Compound 52] are 68.3%, 195.00 ×10^−3 and 1186.33 ×10^−3.
Consider `CC1(C)CC(Oc2nsnc2N2CCSCC2)CC(C)(C)N1O.Cl` [Compound 55, 4-(4-(1-hydroxy-2,2,6,6-tetramethylpiperidin-4-yloxy)-1,2,5-thiadiazol-3-yl)thiomorpholine], for which the melting point is 218 °C (dec.). Further, the “Mean OD (×10^−3), cancer cell viability” value in data set [2] (Dox. 10^−6 M present (+)) is reported as 285.75 ×10^−3. The “Mean OD (×10^−3), cancer cell viability” value in data set [2] (Dox. absent (−)) was 1037.25 ×10^−3.
In data set [1], `CC1(C)CC(=CC(=O)N2CCN(c3ccccc3)CC2)CC(C)(C)N1O` [Compound 56] had a Percent inhibition of angiogenesis in CAM model at 30 ug of 66.1%. Moreover, the “Mean OD (×10^−3), cancer cell viability” value is 308.75 ×10^−3 in data set [2] (Dox. 10^−6 M present (+)) and 1153.00 ×10^−3 in data set [2] (Dox. absent (−)).
On the same counts, the results for `CC1(C)C(CO)=C(c2ccc(F)cc2)C(C)(C)N1O.Cl` [Compound 59, (4-(4-fluorophenyl)-1-hydroxy-2,5-dihydro-2,2,5,5-tetramethyl-1H-pyrrol-3-yl)methanol] are 53%, 352.00 ×10^−3 and 1105.00 ×10^−3.
